Laboratory results reported in publication PMC4686731, “Screening of Pharmacologically Active Small Molecule Compounds Identifies Antifungal Agents Against Candida Biofilms” (Frontiers in Microbiology, 2015).
Values after ≈ are worked out from the molar mass of the structure shown. Read-outs that look alike come from different tables or passages of the source.

Experiments:
C. albicans SC5314 [1] = test: AST broth microdilution, high cell density planktonic mode; assay type: cell-based, Candida albicans; conditions: Candida albicans, SC5314, 24 h, read-out: Minimum inhibitory concentration (MIC)
Procedure: (§1) The in vitro susceptibility of well-characterized wild-type C. albicans strain SC5314, which was provided by Prof. N.A.R. Gow (University of Aberdeen, Aberdeen, UK) was tested against 1280 compounds from the Library of Pharmacologically Active Compounds (LOPAC^1280TM, Sigma–Aldrich, USA). The screen was performed with C. albicans SC5314, and hits were further confirmed with the type strains C. dubliniensis MYA 577, C. glabrata ATCC 2001, C. kusei ATCC 6258, C. palapsilosis ATCC 22019, and C. tropicalis ATCC13803.
(§2) To investigate the antifungal effects of the hit compounds, ASTs were conducted using broth microdilution assays with high cell densities of the planktonic mode, adhesion phase and biofilm mode against Candida strains (C. albicans, C. dubliniensis, C. glabrata, C. kusei, C. palapsilosis, and C. tropicalis). First, high density cell (1 × 10^7 cells/mL) suspensions were added to the RPMI medium containing each hit compound (10–1000 μM) in 96-well plates and incubated at 37°C for 24 h. Next, the 50% minimum inhibitory concentrations (MICs) of high-density Candida planktonic cultures were determined using the CellTiter-Glo luminescent cell viability kit, as described above. The antifungal effects of the hit compounds were also evaluated in the adhesion phase and the biofilm mode, in the same manner as the planktonic mode. Candida biofilms were produced as described previously ([Jin et al., 2004]). In brief, Candida cells were grown on SDA at 37°C for 18 h. A loopful of the yeast culture was then inoculated into yeast nitrogen base (YNB) (Difco, USA) medium supplemented with 50 mM glucose. After overnight broth culture in a rotary shaker at 75 rpm, the cells were washed twice with 20 mL of PBS (pH 7.2, 0.1 M). The yeast cells were re-suspended in YNB supplemented with 100 mM glucose and adjusted to an optical density of 0.38 (1 × 10^7 cells/mL) at 520 nm. This standardized cell suspension was used immediately to form biofilms in the wells of 96-well polystyrene culture plates (Iwaki, Tokyo, Japan). First, the cells were incubated for 90 min at 37°C in a shaker at 75 rpm to allow yeast adherence to the well surface (adhesion phase), before the medium was aspirated and each well was washed once with PBS to remove non-adherent cells. YNB containing 100 mM glucose was then pipetted into each well and the plate was incubated at 37°C in a shaker at 75 rpm for 24 h. Non-adherent cells were removed by pipetting and the biofilms were washed twice with PBS. Following this biofilm growth phase, microscopic examination of the cultures was performed to exclude contamination. These ASTs were repeated on three different occasions.

C. dubliniensis MYA 577 [2] = test: as above; assay type: cell-based; conditions: Candida dubliniensis, read-out: Minimum inhibitory concentration (MIC)
Procedure: as §1, §2

C. glabrata ATCC 2001 [3] = test: as above; assay type: cell-based; conditions: Nakaseomyces glabratus, read-out: Minimum inhibitory concentration (MIC)
Procedure: as §1, §2

C. kusei ATCC 6258 [4] = test: as above; assay type: cell-based; conditions: 24 h, read-out: Minimum inhibitory concentration (MIC)
Procedure: as §1, §2

[5] = tested on: C. palapsilosis ATCC 22019; test: as above; assay type: cell-based; conditions: 24 h, read-out: Minimum inhibitory concentration (MIC)
Procedure: as §1, §2

C. tropicalis ATCC13803 [6] = test: as above; assay type: cell-based; conditions: Candida tropicalis, read-out: Minimum inhibitory concentration (MIC)
Procedure: as §1, §2

C. albicans SC5314 [7] = test: AST, adhesion phase; assay type: cell-based; conditions: Candida albicans, SC5314, 1.5 h, read-out: Minimum inhibitory concentration (MIC)
Procedure: as §1, §2

C. dubliniensis MYA 577 [8] = test: AST, adhesion phase; assay type: cell-based; conditions: Candida dubliniensis, MYA577, 1.5 h, read-out: Minimum inhibitory concentration (MIC)
Procedure: as §1, §2

C. glabrata ATCC 2001 [9] = test: AST, adhesion phase; assay type: cell-based; conditions: Nakaseomyces glabratus, ATCC2001, 1.5 h, read-out: Minimum inhibitory concentration (MIC)
Procedure: as §1, §2

C. kusei ATCC 6258 [10] = test: AST, adhesion phase; assay type: cell-based; conditions: 1.5 h, read-out: Minimum inhibitory concentration (MIC)
Procedure: as §1, §2

[11] = tested on: C. palapsilosis ATCC 22019; test: AST, adhesion phase; assay type: cell-based; conditions: 1.5 h, read-out: Minimum inhibitory concentration (MIC)
Procedure: as §1, §2

C. tropicalis ATCC13803 [12] = test: AST, adhesion phase; assay type: cell-based; conditions: Candida tropicalis, ATCC13803, 1.5 h, read-out: Minimum inhibitory concentration (MIC)
Procedure: as §1, §2

[13] = tested on: C. albicans SC5314 biofilm; test: AST, biofilm mode; assay type: cell-based; conditions: Candida albicans, read-out: Minimum inhibitory concentration (MIC)
Procedure: as §1, §2

[14] = tested on: C. dubliniensis MYA 577 biofilm; test: AST, biofilm mode; assay type: cell-based; conditions: Candida dubliniensis, MYA577BIOFILM, read-out: Minimum inhibitory concentration (MIC)
Procedure: as §1, §2

[15] = tested on: C. glabrata ATCC 2001 biofilm; test: AST, biofilm mode; assay type: cell-based; conditions: Nakaseomyces glabratus, read-out: Minimum inhibitory concentration (MIC)
Procedure: as §1, §2

[16] = tested on: C. kusei ATCC 6258 biofilm; test: AST, biofilm mode; assay type: cell-based; conditions: read-out: Minimum inhibitory concentration (MIC)
Procedure: as §1, §2

[17] = tested on: C. palapsilosis ATCC 22019 biofilm; test: AST, biofilm mode; assay type: cell-based; conditions: read-out: Minimum inhibitory concentration (MIC)
Procedure: as §1, §2

[18] = tested on: C. tropicalis ATCC13803 biofilm; test: AST, biofilm mode; assay type: cell-based; conditions: Candida tropicalis, read-out: Minimum inhibitory concentration (MIC)
Procedure: as §1, §2

Candida strains = test: AST, adhesion phase, all Candida strains; assay type: cell-based; conditions: all six strains
Procedure: as §1
as §2, with “First, the cells were incubated for 90 min at 37°C in a shaker at 75 rpm to allow yeast adherence to the well surface (adhesion phase), before the medium was aspirated and each well was washed once with PBS to remove non-adherent cells. YNB containing 100 mM glucose was then pipetted into each well and the plate was incubated at 37°C in a shaker at 75 rpm for 24 h. Non-adherent cells were removed by pipetting and the biofilms were washed twice with PBS. Following this biofilm growth phase, microscopic examination of the cultures was performed to exclude contamination. These ASTs were repeated on three different occasions.” left out

[19] = 50% MIC, planktonic mode, 1 × 10^7 cells/mL, 24 h
[20] = MYA577, 50% MIC, planktonic mode, 1 × 10^7 cells/mL, 24 h
[21] = ATCC2001, 50% MIC, planktonic mode, 1 × 10^7 cells/mL, 24 h
[22] = 50% MIC, planktonic mode, 1 × 10^7 cells/mL
[23] = ATCC13803, 50% MIC, planktonic mode, 1 × 10^7 cells/mL, 24 h
[24] = adhesion phase (90 min adherence)
[25] = SC5314, biofilm mode (24 h biofilm)
[26] = ATCC2001, biofilm mode (24 h biofilm)
[27] = ATCC13803, biofilm mode (24 h biofilm)

## CC(C)(C)c1ccc(S(=O)(=O)/C=C/C#N)cc1 [Bay11-7085]
C. albicans SC5314 [1]; [19]
  MIC: 3.9 µM (≈ 0.972 µg/mL)
C. dubliniensis MYA 577 [2]; [20]
  MIC: 3.9 µM (≈ 0.972 µg/mL)
C. glabrata ATCC 2001 [3]; [21]
  MIC: 3.9 µM (≈ 0.972 µg/mL)
C. kusei ATCC 6258 [4]; [22]
  MIC: 3.9 µM (≈ 0.972 µg/mL)
[5]; [22]
  MIC: 3.9 µM (≈ 0.972 µg/mL)
C. tropicalis ATCC13803 [6]; [23]
  MIC: 3.9 µM (≈ 0.972 µg/mL)
C. albicans SC5314 [7]; [24]
  MIC: 31.3 µM (≈ 7.8 µg/mL)
C. dubliniensis MYA 577 [8]; [24]
  MIC: 15.6 µM (≈ 3.89 µg/mL)
C. glabrata ATCC 2001 [9]; [24]
  MIC: 31.3 µM (≈ 7.8 µg/mL)
C. kusei ATCC 6258 [10]; [24]
  MIC: 15.6 µM (≈ 3.89 µg/mL)
[11]; [24]
  MIC: 7.8 µM (≈ 1.94 µg/mL)
C. tropicalis ATCC13803 [12]; [24]
  MIC: 31.3 µM (≈ 7.8 µg/mL)
[13]; [25]
  MIC: 31.3 µM (≈ 7.8 µg/mL)
[14]; biofilm mode (24 h biofilm)
  MIC: 62.5 µM (≈ 15.6 µg/mL)
[15]; [26]
  MIC: 62.5 µM (≈ 15.6 µg/mL)
[16]; biofilm mode (24 h biofilm)
  MIC: 62.5 µM (≈ 15.6 µg/mL)
[17]; biofilm mode (24 h biofilm)
  MIC: 15.6 µM (≈ 3.89 µg/mL)
[18]; [27]
  MIC: 62.5 µM (≈ 15.6 µg/mL)
Candida strains
  concentration that inhibited the metabolic activity of Candida strains: < 31.3 µM

## Cc1c2ccncc2c(C)c2c1[nH]c1ccccc12 [Ellipticine]
C. albicans SC5314 [1]; [19]
  MIC: 7.8 µM (≈ 1.92 µg/mL)
C. dubliniensis MYA 577 [2]; [20]
  MIC: 3.9 µM (≈ 0.961 µg/mL)
C. glabrata ATCC 2001 [3]; [21]
  MIC: 7.8 µM (≈ 1.92 µg/mL)
C. kusei ATCC 6258 [4]; [22]
  MIC: 7.8 µM (≈ 1.92 µg/mL)
[5]; [22]
  MIC: 7.8 µM (≈ 1.92 µg/mL)
C. tropicalis ATCC13803 [6]; [23]
  MIC: 15.6 µM (≈ 3.84 µg/mL)
C. albicans SC5314 [7]; [24]
  MIC: 62.5 µM (≈ 15.4 µg/mL)
C. dubliniensis MYA 577 [8]; [24]
  MIC: 125 µM (≈ 30.8 µg/mL)
C. glabrata ATCC 2001 [9]; [24]
  MIC: 62.5 µM (≈ 15.4 µg/mL)
C. kusei ATCC 6258 [10]; [24]
  MIC: 250 µM (≈ 61.6 µg/mL)
[11]; [24]
  MIC: 125 µM (≈ 30.8 µg/mL)
C. tropicalis ATCC13803 [12]; [24]
  MIC: 250 µM (≈ 61.6 µg/mL)
[13]; [25]
  MIC: 125 µM (≈ 30.8 µg/mL)
[14]; biofilm mode (24 h biofilm)
  MIC: 500 µM (≈ 123 µg/mL)
[15]; [26]
  MIC: 62.5 µM (≈ 15.4 µg/mL)
[16]; biofilm mode (24 h biofilm)
  MIC: 250 µM (≈ 61.6 µg/mL)
[17]; biofilm mode (24 h biofilm)
  MIC: 250 µM (≈ 61.6 µg/mL)
[18]; [27]
  MIC: 250 µM (≈ 61.6 µg/mL)

## C[n+]1cc2c3c(ccc2c2ccc4cc5c(cc4c21)OCO5)OCO3 [Sanguinarine, Sanguinarine chloride hydrate]
C. albicans SC5314 [1]
  MIC: < 1 µM
C. dubliniensis MYA 577 [2]; MYA577, 24 h
  MIC: < 1 µM
C. glabrata ATCC 2001 [3]; ATCC2001, 24 h
  MIC: < 1 µM
C. kusei ATCC 6258 [4]
  MIC: < 1 µM
[5]
  MIC: < 1 µM
C. tropicalis ATCC13803 [6]; ATCC13803, 24 h
  MIC: < 1 µM
C. albicans SC5314 [7]
  MIC: 15.6 µM
C. dubliniensis MYA 577 [8]
  MIC: 15.6 µM
C. glabrata ATCC 2001 [9]
  MIC: 15.6 µM
C. kusei ATCC 6258 [10]
  MIC: 7.8 µM
[11]
  MIC: 7.8 µM
C. tropicalis ATCC13803 [12]
  MIC: 7.8 µM
[13]; SC5314, 24 h
  MIC: 15.6 µM
[14]; 24 h
  MIC: 15.6 µM
[15]; ATCC2001, 24 h
  MIC: 15.6 µM
[16]; 24 h
  MIC: 31.3 µM
[17]; 24 h
  MIC: 7.8 µM
[18]; ATCC13803, 24 h
  MIC: 31.3 µM
Candida strains
  concentration that inhibited the metabolic activity of Candida strains: < 15.6 µM

## Cc1ccc(S(=O)(=O)/C=C/C#N)cc1 [Bay11-7082]
C. albicans SC5314 [1]; [19]
  MIC: 7.8 µM (≈ 1.62 µg/mL)
C. dubliniensis MYA 577 [2]; [20]
  MIC: 3.9 µM (≈ 0.808 µg/mL)
C. glabrata ATCC 2001 [3]; [21]
  MIC: 7.8 µM (≈ 1.62 µg/mL)
C. kusei ATCC 6258 [4]; [22]
  MIC: 3.9 µM (≈ 0.808 µg/mL)
[5]; [22]
  MIC: 3.9 µM (≈ 0.808 µg/mL)
C. tropicalis ATCC13803 [6]; [23]
  MIC: 7.8 µM (≈ 1.62 µg/mL)
C. albicans SC5314 [7]; [24]
  MIC: 31.3 µM (≈ 6.49 µg/mL)
C. dubliniensis MYA 577 [8]; [24]
  MIC: 15.6 µM (≈ 3.23 µg/mL)
C. glabrata ATCC 2001 [9]; [24]
  MIC: 31.3 µM (≈ 6.49 µg/mL)
C. kusei ATCC 6258 [10]; [24]
  MIC: 15.6 µM (≈ 3.23 µg/mL)
[11]; [24]
  MIC: 15.6 µM (≈ 3.23 µg/mL)
C. tropicalis ATCC13803 [12]; [24]
  MIC: 31.3 µM (≈ 6.49 µg/mL)
[13]; [25]
  MIC: 31.3 µM (≈ 6.49 µg/mL)
[14]; biofilm mode (24 h biofilm)
  MIC: 31.3 µM (≈ 6.49 µg/mL)
[15]; [26]
  MIC: 62.5 µM (≈ 13 µg/mL)
[16]; biofilm mode (24 h biofilm)
  MIC: 62.5 µM (≈ 13 µg/mL)
[17]; biofilm mode (24 h biofilm)
  MIC: 15.6 µM (≈ 3.23 µg/mL)
[18]; [27]
  MIC: 62.5 µM (≈ 13 µg/mL)
Candida strains
  concentration that inhibited the metabolic activity of Candida strains: < 31.3 µM
